Experiment [1] has as its target T1, BRD9 bromodomain (Flag-BRD9 P133-K239; Swiss Prot Q9H8M2) (Homo sapiens, UniProt Q9H8M2).
T1 construct: His-Flag-BRD9 (P133-K239); Swiss Prot Q9H8M2; His6 with TEV site (mgsshhhhhhenlyfq/) (N, cleaved yes); made in house
T1 sequence (Q9H8M2 133-239): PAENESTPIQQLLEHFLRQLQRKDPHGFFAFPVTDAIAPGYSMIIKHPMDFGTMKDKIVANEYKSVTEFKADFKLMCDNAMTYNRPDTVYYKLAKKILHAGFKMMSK
Description: BRD9 Bromodomain TR-FRET Competition Binding Assay. The conditions noted are these: competition with biotinylated BRD9 ligand; 90 minutes at room temperature. An outline of the steps:
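Tag-cleaved Flag-BRD9 (P133-K239) at 3 nM final displacing 3.75 nM biotinylated ligand, with 7.5 nM APC-streptavidin and 0.2 nM Eu-anti-FLAG, in 50 mM HEPES pH 7.4, 50 mM NaCl, 1 mM TCEP, 0.01% Tween-20, 0.01% BSA. Read after 90 min at room temperature as 665/615 nm ratio.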
In general terms: Time-resolved FRET reads energy transfer from a long-lived donor to a nearby acceptor.

Experiment [2] concerns the target T2, Nanoluciferase-BRD9 fusion protein (3×FLAG-NLuc-BRD9) in SYO-1 cells (Homo sapiens, UniProt Q9H8M2).
T2 construct: expressed in transfected cells; host or cells: SYO-1
T2 sequence (Q9H8M2 1-597): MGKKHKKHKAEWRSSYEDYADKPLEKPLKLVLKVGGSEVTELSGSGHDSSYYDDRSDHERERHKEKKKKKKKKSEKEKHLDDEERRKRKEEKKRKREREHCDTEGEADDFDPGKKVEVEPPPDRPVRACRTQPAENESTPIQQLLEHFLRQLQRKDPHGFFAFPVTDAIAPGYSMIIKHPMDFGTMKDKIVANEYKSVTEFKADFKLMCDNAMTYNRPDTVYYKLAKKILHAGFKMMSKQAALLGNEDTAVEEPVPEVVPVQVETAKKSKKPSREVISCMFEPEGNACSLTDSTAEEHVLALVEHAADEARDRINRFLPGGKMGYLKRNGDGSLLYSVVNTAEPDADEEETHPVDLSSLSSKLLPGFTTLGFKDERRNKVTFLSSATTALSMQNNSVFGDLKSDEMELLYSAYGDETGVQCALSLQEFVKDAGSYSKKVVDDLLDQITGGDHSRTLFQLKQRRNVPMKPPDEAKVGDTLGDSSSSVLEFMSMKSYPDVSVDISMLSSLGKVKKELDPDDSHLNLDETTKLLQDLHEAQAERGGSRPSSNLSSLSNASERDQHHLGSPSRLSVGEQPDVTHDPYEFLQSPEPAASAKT
The experiment can be described thus: SYO1 BRD9 NanoLuc Degradation Assay. The following applies: 6 hours; SYO-1 cells expressing 3×FLAG-NLuc-BRD9; top dose 1 μM; read-out: SYO1 BRD9-NanoLuc degradation IC50. Type of experiment: cell-based. An outline of the steps: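 Stable 3×FLAG-NLuc-BRD9 SYO-1 line, 8000 cells/well, dosed day 1 with 10-point 3-fold dilutions (1 μM final top, duplicates) for 6 h. NanoLuc bioluminescence read with Nano-Glo; % inhibition relative to DMSO (high) and 1 μM reference BRD9 degrader (low) controls.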

As a reminder, the IC50 is the point on the concentration scale where inhibition reaches its midpoint. `COc1cc(-c2cn(C)c(=O)c3cnc(NCCCCCOc4cccc5c4C(=O)N(C4CCC(=O)NC4=O)C5=O)cc23)c(OC)cc1CN(C)C` (centres unmarked) [Compound D6, 4-((5-((5-(4-((dimethylamino)methyl)-2,5-dimethoxyphenyl)-7-methyl-8-oxo-7,8-dihydro-2,7-naphthyridin-3-yl)amino)pentyl)oxy)-2-(2,6-dioxopiperidin-3-yl)isoindoline-1,3-dione formic acid]: the IC50 in experiment [1] was no less than 0.01 µM. The DC50 in experiment [2] was no less than 0.01 µM.

Molecule `COc1cc(-c2cn(C)c(=O)c3cnc(NC(=O)CCOCCOCCNc4cccc5c4C(=O)N(C4CCC(=O)NC4=O)C5=O)cc23)cc(OC)c1CN(C)C` (centres unmarked) [Compound D11, N-(5-(4-((dimethylamino)methyl)-3,5-dimethoxyphenyl)-7-methyl-8-oxo-7,8-dihydro-2,7-naphthyridin-3-yl)-3-(2-(2-((2-(2,6-dioxopiperidin-3-yl)-1,3-dioxoisoindolin-4-yl)amino)ethoxy)ethoxy)propanamide formic acid] registered an IC50 in experiment [1] of no less than 0.01 µM. For the same molecule, in experiment [2], the DC50 was no less than 0.1 µM.

In the case of `CNc1cc2c(=O)n(C)cc(-c3cc(OC)c(CN4CC(C(=O)NCCCCCOc5cccc6c5C(=O)N(C5CCC(=O)NC5=O)C6=O)C4)c(OC)c3)c2cn1` (centres unmarked) [Compound D7, 1-([2,6-dimethoxy-4-[2-methyl-7-(methylamino)-1-oxo-2,6-naphthyridin-4-yl]phenyl]methyl)-N-(5-[[2-(2,6-dioxopiperidin-3-yl)-1,3-dioxoisoindol-4-yl]oxy]pentyl)azetidine-3-carboxamide formic acid], the half-inhibitory concentration (IC50) in experiment [1] is less than 0.01 µM. Further, in experiment [2], the DC50 is less than 0.01 µM.

`COc1cc(-c2cn(C)c(=O)c3cnc(N(C)C)cc23)cc(OC)c1CN1CCC2(CC1)CN(C(=O)CCCCOc1ccc3c(c1)C(=O)N(C1CCC(=O)NC1=O)C3=O)CCO2` (centres unmarked) [Compound D19, 5-((5-(9-(4-(6-(dimethylamino)-2-methyl-1-oxo-1,2-dihydro-2,7-naphthyridin-4-yl)-2,6-dimethoxybenzyl)-1-oxa-4,9-diazaspiro[5.5]undecan-4-yl)-5-oxopentyl)oxy)-2-(2,6-dioxopiperidin-3-yl)isoindoline-1,3-dione formic acid] returned a half-maximal inhibitory concentration (IC50) in experiment [1] of less than 0.01 µM. Also, the DC50 in experiment [2] is less than 0.01 µM.

In experiment [1], `COc1cc(-c2cn(C)c(=O)c3cnc(NC(=O)CCOCCOCCNc4ccc5c(c4)C(=O)N(C4CCC(=O)NC4=O)C5=O)cc23)cc(OC)c1CN(C)C` (centres unmarked) [Compound D14, N-(5-(4-((dimethylamino)methyl)-3,5-dimethoxyphenyl)-7-methyl-8-oxo-7,8-dihydro-2,7-naphthyridin-3-yl)-3-(2-(2-((2-(2,6-dioxopiperidin-3-yl)-1,3-dioxoisoindolin-5-yl)amino)ethoxy)ethoxy)propanamide formic acid] yielded a half-inhibitory concentration (IC50) of no less than 0.01 µM. Moreover, the DC50 in experiment [2] was no less than 0.1 µM.

As for `COc1cc(-c2cn(C)c(=O)c3cnc(N(C)C)cc23)cc(OC)c1CN1CC(C(=O)NCCCCCOc2cccc3c2C(=O)N(C2CCC(=O)NC2=O)C3=O)C1` (centres unmarked) [Compound D1, 1-([4-[6-(dimethylamino)-2-methyl-1-oxo-1,2-dihydro-2,7-naphthyridin-4-yl]-2,6-dimethoxyphenyl]methyl)-N-(5-[[2-(2,6-dioxopiperidin-3-yl)-1,3-dioxo-2,3-dihydro-1H-isoindol-4-yl]oxy]pentyl)azetidine-3-carboxamide], in experiment [1], the 50% inhibitory concentration (IC50) was less than 0.01 µM. Further, in experiment [2], the DC50 was less than 0.01 µM.

Regarding `CNc1cc2c(=O)n(C)cc(-c3cc(OC)c(CN4CCC5(CC4)CN(C(=O)CCCCOc4cccc6c4C(=O)N(C4CCC(=O)NC4=O)C6=O)CCO5)c(OC)c3)c2cn1` (centres unmarked) [Compound D15, 4-([5-[9-([2,6-dimethoxy-4-[2-methyl-7-(methylamino)-1-oxo-2,6-naphthyridin-4-yl]phenyl]methyl)-1-oxa-4,9-diazaspiro[5.5]undecan-4-yl]-5-oxopentyl]oxy)-2-(2,6-dioxopiperidin-3-yl)isoindole-1,3-dione formic acid], the concentration for half-maximal inhibition (IC50) in experiment [1] was less than 0.01 µM. Also, the DC50 in experiment [2] was less than 0.01 µM.

Source of the values: US12391686B2, “Compounds and uses thereof” (Foghorn Therapeutics Inc., priority 2019, dated 2025).
